In data set [1] the target is T1, Mineralocorticoid receptor (Homo sapiens) (UniProt P08235).
T1 sequence (whole entry): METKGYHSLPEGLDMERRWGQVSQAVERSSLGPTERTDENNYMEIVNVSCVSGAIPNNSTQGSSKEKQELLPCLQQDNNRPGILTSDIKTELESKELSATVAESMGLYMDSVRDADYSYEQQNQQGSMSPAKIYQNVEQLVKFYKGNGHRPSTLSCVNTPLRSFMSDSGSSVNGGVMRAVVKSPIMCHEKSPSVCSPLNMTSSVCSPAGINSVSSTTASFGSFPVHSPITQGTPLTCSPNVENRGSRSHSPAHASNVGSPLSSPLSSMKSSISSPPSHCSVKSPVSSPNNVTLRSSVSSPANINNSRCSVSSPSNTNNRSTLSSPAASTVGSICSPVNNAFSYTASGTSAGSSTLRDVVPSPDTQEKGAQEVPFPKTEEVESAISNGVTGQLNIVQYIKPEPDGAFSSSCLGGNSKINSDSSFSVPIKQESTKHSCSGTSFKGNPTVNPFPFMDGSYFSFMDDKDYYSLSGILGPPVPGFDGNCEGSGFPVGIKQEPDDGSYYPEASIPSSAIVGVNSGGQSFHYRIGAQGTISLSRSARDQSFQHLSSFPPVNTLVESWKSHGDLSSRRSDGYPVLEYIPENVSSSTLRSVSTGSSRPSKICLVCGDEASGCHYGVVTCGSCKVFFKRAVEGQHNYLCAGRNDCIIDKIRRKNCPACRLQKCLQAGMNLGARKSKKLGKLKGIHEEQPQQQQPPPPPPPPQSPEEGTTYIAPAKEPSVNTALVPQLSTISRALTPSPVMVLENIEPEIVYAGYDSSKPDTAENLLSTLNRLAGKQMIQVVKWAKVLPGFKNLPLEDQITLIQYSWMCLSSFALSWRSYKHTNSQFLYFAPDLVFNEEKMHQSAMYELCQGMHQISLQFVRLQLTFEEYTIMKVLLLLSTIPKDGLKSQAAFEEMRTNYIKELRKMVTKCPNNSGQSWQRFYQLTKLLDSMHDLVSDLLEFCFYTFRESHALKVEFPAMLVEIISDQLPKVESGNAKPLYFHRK
Nature of the data set: Agonist activity at gal-MR expressed in african green monkey CV1 cells co-expressing MH100 by luciferase reporter gene assay. It is filed as functional, cell-based. The conditions noted are these: CV-1. (In general: In a reporter assay the amount or activity of a reporter protein is the signal.)

For data set [2], the target named is T2, Peroxisome proliferator-activated receptor alpha (Homo sapiens) (UniProt Q07869).
T2 sequence (whole entry): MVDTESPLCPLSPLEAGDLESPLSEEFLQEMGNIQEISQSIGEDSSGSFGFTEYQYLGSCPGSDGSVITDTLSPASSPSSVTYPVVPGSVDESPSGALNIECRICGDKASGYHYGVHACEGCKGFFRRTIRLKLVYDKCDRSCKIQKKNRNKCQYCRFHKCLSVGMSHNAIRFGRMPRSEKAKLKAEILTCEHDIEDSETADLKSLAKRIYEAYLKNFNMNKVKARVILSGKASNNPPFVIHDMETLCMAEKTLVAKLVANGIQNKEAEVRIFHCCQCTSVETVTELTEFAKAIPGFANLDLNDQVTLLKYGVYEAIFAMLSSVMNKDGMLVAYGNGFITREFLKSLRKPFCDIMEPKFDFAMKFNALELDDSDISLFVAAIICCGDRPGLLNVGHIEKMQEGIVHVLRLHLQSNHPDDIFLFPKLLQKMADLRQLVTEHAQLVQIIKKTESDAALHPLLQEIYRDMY
Nature of the data set: Agonist activity at PPARalpha expressed in african green monkey CV1 cells co-expressing MH100 by luciferase reporter gene assay. It is filed as functional, cell-based. The conditions noted are these: CV-1.

Data set [3] has as its target T3, Peroxisome proliferator-activated receptor delta (Homo sapiens) (UniProt Q03181).
T3 sequence (whole entry): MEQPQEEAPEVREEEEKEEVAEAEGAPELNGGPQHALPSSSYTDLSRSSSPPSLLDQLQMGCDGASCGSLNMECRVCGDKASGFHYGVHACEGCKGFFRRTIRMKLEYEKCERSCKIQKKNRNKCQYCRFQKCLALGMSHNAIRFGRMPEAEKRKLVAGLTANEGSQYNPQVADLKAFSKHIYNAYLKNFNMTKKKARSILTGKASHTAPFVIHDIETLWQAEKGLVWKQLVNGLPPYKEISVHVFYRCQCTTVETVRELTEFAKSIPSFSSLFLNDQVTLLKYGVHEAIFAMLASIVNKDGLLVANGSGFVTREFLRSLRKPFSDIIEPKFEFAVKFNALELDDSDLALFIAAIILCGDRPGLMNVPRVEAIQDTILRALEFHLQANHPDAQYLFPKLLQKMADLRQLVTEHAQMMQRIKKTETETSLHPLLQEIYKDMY
Nature of the data set: Antagonist activity at PPARdelta expressed in african green monkey CV1 cells co-expressing MH100 by luciferase reporter gene assay. It is filed as functional, cell-based. The settings on record: CV-1.

Data set [4] addresses Steroid hormone receptor ERR1 (Homo sapiens) (UniProt P11474). Nature of the data set: Antagonist activity at ERRalpha expressed in african green monkey CV1 cells by luciferase reporter gene assay. It is filed as functional, cell-based. The conditions noted are these: CV-1.
Data set [5] has as its target Steroid hormone receptor ERR2 (Homo sapiens) (UniProt O95718). Nature of the data set: Antagonist activity at ERRbeta expressed in african green monkey CV1 cells by luciferase reporter gene assay. The settings on record: CV-1. It is filed as functional, cell-based.
The nature of data set [6]: Half life in CD rat at 3 mg/kg, iv. The class given is ADME, organism-based. Details: dose 3 mg/kg, route intravenous. The conditions noted are these: in vivo.
For data set [7], the target named is T4, Glucocorticoid receptor (Homo sapiens) (UniProt P04150).
T4 sequence (whole entry): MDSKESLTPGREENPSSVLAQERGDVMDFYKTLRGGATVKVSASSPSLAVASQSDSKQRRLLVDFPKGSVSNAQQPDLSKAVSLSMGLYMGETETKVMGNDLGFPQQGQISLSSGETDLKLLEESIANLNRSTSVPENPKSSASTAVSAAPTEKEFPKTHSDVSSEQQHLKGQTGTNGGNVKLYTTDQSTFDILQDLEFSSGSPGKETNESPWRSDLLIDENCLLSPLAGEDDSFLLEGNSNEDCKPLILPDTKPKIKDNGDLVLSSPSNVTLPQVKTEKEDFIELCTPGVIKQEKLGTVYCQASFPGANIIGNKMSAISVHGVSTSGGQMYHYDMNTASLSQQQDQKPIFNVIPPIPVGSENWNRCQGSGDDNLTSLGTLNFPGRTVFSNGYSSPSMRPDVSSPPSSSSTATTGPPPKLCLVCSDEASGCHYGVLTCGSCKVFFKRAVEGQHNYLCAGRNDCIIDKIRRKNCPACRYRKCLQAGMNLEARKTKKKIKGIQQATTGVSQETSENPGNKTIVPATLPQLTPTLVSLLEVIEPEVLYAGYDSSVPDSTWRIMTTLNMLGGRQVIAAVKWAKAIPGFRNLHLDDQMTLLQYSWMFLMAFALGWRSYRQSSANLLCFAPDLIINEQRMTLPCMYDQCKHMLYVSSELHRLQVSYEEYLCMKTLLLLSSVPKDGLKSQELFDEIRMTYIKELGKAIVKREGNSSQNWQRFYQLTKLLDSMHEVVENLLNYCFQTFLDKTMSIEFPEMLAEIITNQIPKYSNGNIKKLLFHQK
Nature of the data set: Antagonist activity at gal-GR expressed in african green monkey CV1 cells co-expressing MH100 at 10 uM by luciferase reporter gene assay. The conditions noted are these: CV-1. It is filed as functional, cell-based.

Data set [8] is described as follows: Clearance in CD rat at 3 mg/kg, iv. The class given is ADME, organism-based. The settings on record: in vivo. Set-up: dose 3 mg/kg, route intravenous.

Calls of active or inactive are those of the source. The rule behind the calls is not given here.

Chain of Steroid hormone receptor ERR1 (Homo sapiens) (P11474 whole entry): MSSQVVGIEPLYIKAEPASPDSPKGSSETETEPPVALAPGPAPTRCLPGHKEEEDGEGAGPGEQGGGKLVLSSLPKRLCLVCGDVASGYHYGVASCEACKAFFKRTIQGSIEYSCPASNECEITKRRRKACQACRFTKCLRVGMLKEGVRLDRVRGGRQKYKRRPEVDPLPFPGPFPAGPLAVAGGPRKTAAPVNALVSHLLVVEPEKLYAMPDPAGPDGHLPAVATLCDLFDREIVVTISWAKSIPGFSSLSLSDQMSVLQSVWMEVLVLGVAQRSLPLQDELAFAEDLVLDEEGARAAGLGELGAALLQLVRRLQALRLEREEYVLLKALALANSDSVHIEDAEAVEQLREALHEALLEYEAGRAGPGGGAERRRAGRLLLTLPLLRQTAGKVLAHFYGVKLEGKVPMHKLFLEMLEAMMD
Chain of Steroid hormone receptor ERR2 (Homo sapiens) (O95718 whole entry): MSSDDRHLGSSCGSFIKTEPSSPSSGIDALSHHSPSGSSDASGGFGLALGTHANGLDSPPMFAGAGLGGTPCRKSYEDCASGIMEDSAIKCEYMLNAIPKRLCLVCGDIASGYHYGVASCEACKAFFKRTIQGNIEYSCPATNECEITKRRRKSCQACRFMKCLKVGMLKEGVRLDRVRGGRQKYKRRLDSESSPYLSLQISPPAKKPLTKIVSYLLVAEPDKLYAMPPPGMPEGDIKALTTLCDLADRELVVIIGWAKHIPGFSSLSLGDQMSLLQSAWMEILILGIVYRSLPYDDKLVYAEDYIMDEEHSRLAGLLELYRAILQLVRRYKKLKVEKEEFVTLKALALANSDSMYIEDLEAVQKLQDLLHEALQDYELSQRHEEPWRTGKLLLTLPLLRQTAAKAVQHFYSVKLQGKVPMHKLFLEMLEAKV

By half-life is commonly meant the time in which the quantity being followed falls by half. For orientation: inhibition means how much of the control response was suppressed. By clearance is commonly meant a measure of how efficiently the substance is removed, as volume per time. On to `CC(C)OC(=O)C1=CN(C(=O)c2ccc(F)c(F)c2)CC(C)(C)c2c1[nH]c1ccccc21` [TUROFEXORATE ISOPROPYL], for which the result in data set [1], in data set [2], in data set [3], in data set [4] and in data set [5] was inactive. The half-life in data set [6] was 40.1 h. This molecule also registered an inhibition in data set [7] of 35%. Further, the clearance in data set [8] was 0.341 L/h/kg.

Values taken from ChEMBL document CHEMBL1140941 (J Med Chem, 2009).
